Measured values reported in paper PMC11413853, “Discovery of VU6007496: Challenges in the Development of an M1 Positive Allosteric Modulator Backup Candidate” (ACS Chemical Neuroscience, 2024).
Like-named read-outs stand apart in the source and are kept apart here.

Key:
Glutamate, Kainate = assay: Eurofins radioligand binding; parameters: species or system Rat; conditions: specific binding
Adenosine A3 = assay: Eurofins radioligand binding; parameters: species or system Human; conditions: specific binding
Adrenergic α1B = assay: Eurofins radioligand binding; parameters: species or system Human; conditions: specific binding
rCYP3A4 = assay: Substrate depletion with recombinant human CYPs, rCYP3A4; type: in vitro ADME
Excerpt: To advance 11 as a candidate and into IND-enabling studies, we next needed to better understand its CYP profile to minimize drug–drug interactions in the clinic. […] We were pleased to see the contribution of another CYP beyond 3A4 for the metabolism of 11.[21] In parallel, we investigated the ability of PAM 11 to induce the expression of CYP450s (measuring mRNA) in cryopreserved human hepatocytes from three separate donors.

Dopamine D1 = assay: Eurofins radioligand binding; parameters: species or system Human; conditions: specific binding
[1] = Rat IV plasma:brain level cassette; type: in vivo; conditions: male, 0.25 mg/kg; for concentration at 15 min: Sprague Dawley; for Kp uu at 0.25 h / Kp at 0.25 h: Sprague-Dawley, brain and plasma, 15 min; for Kp at 0.25 h: brain:plasma
Procedure: PAMs 11 and 12 were next evaluated in our rat IV plasma: brain level cassette paradigm (0.25 mg/kg compound, 1 mg/kg total dose, 10.1% EtOH:40.4% PEG400:49.5% DMSO) sampled at a set 15 min time point to assess CNS penetration. […] As mice are the most sensitive species to cholinergic mechanisms,[11],[13],[23],[24] we placed a high-throughput phenotypic seizure liability assay into the work-flow in which potent ago-PAMs, such as 2–5,[8]−[15] display robust Racine scale 4/5 behavioral convulsions that develop within minutes of dosing and last for the 3 h duration of the study. […] In parallel, we performed electrophysiology studies in mouse native tissue layer V medial prefrontal cortex (mPFC). […] Thus, both compounds cleared the major hurdles of CNS penetration and the liability of M1 overstimulation. […]
LC/MS/MS Bioanalysis of Samples from Plasma Protein Binding and Intrinsic Clearance […]
Samples were analyzed on a Thermo Electron TSQ Quantum Ultra triple quad mass spectrometer (San Jose, CA) via electrospray ionization (ESI) with two Themo Electron Accella pumps (San Jose, CA), and a Leap Technologies CTC PAL autosampler (Carrboro, NC). Analytes were separated by gradient elution on a dual column system with two Thermo Hypersil Gold (2.1 x 30 mm, 1.9 µm) columns (San Jose, CA) thermostated at 40 °C. HPLC mobile phase A was 0.1% formic acid in water and mobile phase B was 0.1% formic acid in acetonitrile. The gradient started […]
for 0.2 min; returned to 10% B in 0.1 min. The total run time was 1.3 min and the HPLC flow rate was 0.8 mL/min. While pump 1 ran the gradient method, pump 2 equilibrated the alternate column isocratically at 10% B. Compound optimization, data collection, and processing was performed using Thermo Electron's QuickQuan software (v2.3) and Xcalibur (v2.0.7 SP1).
In vivo DMPK experimental:
Determination of brain to plasma ratio:
All animal study procedures were approved by the Institutional Animal Care and Use Committee and were conducted in accordance with the National Institutes of Health regulations of animal care covered in Principles of Laboratory Animal Care (National Institutes of Health). All rats were fasted overnight prior to testing.
For determination of the brain over plasma ratio (Kp), compounds were formulated in 8% ethanol, 32% PEG400 and 60% DMSO (v/v/v) and administered as a single 0.2 mg/kg IV dose (1 mL/kg) to male, Sprague Dawley rats (n = 1) via injection into a surgically-implanted jugular vein catheter. At 15 min post dosing, blood sample was collected into chilled, K2EDTA anticoagulant-fortified tube and immediately placed on wet ice. The blood sample was then centrifuged (1700 rcf, 5 minutes, 4 °C) to obtain plasma sample. At the same post-administration time point, whole brain sample was obtained by rapid dissection, rinsed with PBS, and immediately frozen in individual tissue collection box (dry ice). All brain and plasma samples were stored at -80 °C until […]
Sample Analysis: Concentrations in plasma and brain homogenates were quantified by liquid chromatography tandem mass spectrometry (LC-MS/MS). Whole brains were homogenized in 3 mL of 70:30 IPA:water in a mini bead beater for 3 min, and centrifuged at 3,500 g for 5 min. 5 uL of the supernatant was diluted in 15 uL of blank plasma for quantification of the analytes. Plasma samples were centrifuged at 3,500 g for 5 min. A standard curve was generated by diluting the analytes DMSO stocks with blank plasma to obtain a final concentration of 10,000 ng/ml followed by a serial dilution down to 0.5 ng/ml. Quality controls were generated by a serial dilution of the 5,000 ng/ml standard curve solution in blank plasma to obtain 3 concentrations of 500, 50, and 5 ng/ml. 20 uL of brain diluted in plasma, plasma, blank plasma, standard curve and QC samples were loaded in a V-bottom 96-well plate. 120 uL of acetonitrile containing 0.05 uM carbamazepine (internal standard) was added to each well and the plate was centrifuged at 3,500 g for 5 min. 60 […]

Bradykinin B2 = assay: Eurofins radioligand binding; parameters: species or system Human; conditions: specific binding
hKv1.5 = test system: T1, hKv1.5; assay: Ion channel current (Charles River Study 200609.WVN); type: cell-based, human; conditions: 10 μM; n 3
T1 construct: Charles River
Excerpt: (§1) Table S2. Effects of VU6007496 on Ion Channel Current (Charles River Study 200609.WVN)
(§2) Ion Channel Conc Mean % Standard Standard n Individual Data
(§3) (μM) Inhibition Deviation Error Points (% Inhibition)

hNav1.5 (Tonic) = test system: T2, hNav1.5 (Tonic); assay: as above; type: cell-based, human; conditions: 10 μM, n 4
T2 construct: Charles River Study 200609.WVN
Excerpt: as §1, §2, §3

[2] = In vivo rat MET ID (plasma)
Procedure: The team was still puzzled by the severe cholinergic adverse events observed in rats at the 100 and 300 mg/kg arms of the dose escalation study, as this was not consistent with the past 20 years of M1 PAM research. Could the N-demethylated metabolite A (24) be responsible? Due to the disconnect between liver S9 and hepatocytes, we felt it was prudent to examine in vivo rat MET ID at doses of 100 and 300 mg/kg to ensure 24 is produced upon in vivo oral dosing after 5–30 min and 160–240 min, and to determine if any other putative metabolites are generated at detectable levels (Figure 10). Across both doses and time points, 73–81% of the parent 11 remained. Metabolite 24 was produced in vivo at 2.2 to 5.6% relative abundance and lower than from in vitro incubations, along with two oxidative metabolites, a dioxygenated species M461 (26) and a mono-oxygenated species M445 (27) on the tetrahydropyranyl moiety. […] A species such as 27 would resemble the hydroxy pyranyl congeners known to be potent ago-PAMs and prone to severe cholinergic side effects, and the potential for 24 to elicit similar cholinergic toxicity was unknown.

[3] = brain, read-out: brain concentration
[4] = plasma, read-out: plasma concentration

Structure (SMILES) | % Inhibition at 10 µM (Glutamate, Kainate) [%] | % Inhibition at 10 µM (Adenosine A3) [%] | % Inhibition at 10 µM (Adrenergic α1B) [%] | share of hepatic CYP-mediated clearance, rCYP3A4 (rCYP3A4) [%] | % Inhibition at 10 µM (Dopamine D1) [%] | concentration at 15 min [1, 3] [ng/g] | concentration at 15 min [1, 4] [ng/mL] | Kp uu at 0.25 h [1] | Kp at 0.25 h [1] | % Inhibition at 10 µM (Bradykinin B2) [%] | Mean % Inhibition (hKv1.5) [%] | Mean % Inhibition (hNav1.5 (Tonic)) [%] | Relative Abundance (%) ([2]; 11 dosed 100mg, 5-30 min) | Relative Abundance (%) ([2]; 11 dosed 100mg, 60-240 min) | Relative Abundance (%) ([2]; 11 dosed 300mg, 5-30 min) | Relative Abundance (%) ([2]; 11 dosed 300mg, 160-240 min)
Cn1ccc(-c2ccc(Cc3cc(C(=O)NC4CCOCC4)nc4ccn(C)c34)cc2)n1 [compound 11] | -19 | 38 | 14 | 97.6 | 5 | 39 | 92.2 | 0.36 | 0.42 | -3 | 8.7 | 3.9 | 81.0 | 74.0 | 79.4 | 73.1
Cn1ccc(-c2ccc(Cc3cc(C(=O)NC4CCOCC4)nc4ccsc34)cc2)n1 [compound 12] |  |  |  |  |  | 120 | 105 | 0.7 | 1.1 |  |  |  |  |  |  | 
Cn1ccc2nc(C(=O)NC3CCOCC3)cc(Cc3ccc(-c4cc[nH]n4)cc3)c21 [compound 24] |  |  |  |  |  |  |  |  |  |  |  |  | 2.2 | 5.6 | 1.7 | 3.2
